Our source for the IC50 values is patent US20220168309A1 (F-STAR THERAPEUTICS, INC., priority 2019, published 2022).

The target in this test is STING (Homo sapiens, UniProt Q86WV6). Kind of test: STING antagonist activity, cell-based ISG54 promoter-reporter luciferase measurement of IRF activity (THP-1 dual / RAW-ISG cells). The conditions noted are these: Antagonist Activity of Exemplary Compounds; cell line and agonist not given; read-out: IC50. In a few lines: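 THP-1 dual or RAW-ISG cells (50,000/well) pretreated 1 h with compound (10 to 0.01 uM), then stimulated with SB 11285 (30 nM or 1 μM) or 2′3′-cGAMP (10 ug/mL or lipo mixture) for 18–20 h at 37° C. IRF-driven luciferase read by Quanti-Luc; % inhibition versus untreated or DMSO wells, IC50 by curve fit.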
Sequence of STING (Q86WV6 whole entry): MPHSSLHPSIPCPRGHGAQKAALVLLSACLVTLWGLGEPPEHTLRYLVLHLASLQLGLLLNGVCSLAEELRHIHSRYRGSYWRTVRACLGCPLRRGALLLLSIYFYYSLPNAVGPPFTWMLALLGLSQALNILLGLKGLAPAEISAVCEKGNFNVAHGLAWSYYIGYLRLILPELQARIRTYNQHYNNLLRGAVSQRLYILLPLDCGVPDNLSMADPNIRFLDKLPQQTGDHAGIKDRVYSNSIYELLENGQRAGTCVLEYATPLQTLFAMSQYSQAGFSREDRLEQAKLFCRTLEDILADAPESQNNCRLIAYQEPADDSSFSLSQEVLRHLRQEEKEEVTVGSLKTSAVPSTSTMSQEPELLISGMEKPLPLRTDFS
Turning to `CC(C)n1cnc2nc(Cl)nc(Cl)c21` [Compound 49, 2,6-dichloro-7-isopropyl-7H-purine], the IC50 was greater than 20 µM.

For the molecule `COC(=O)CCCCCO[C@@H]1CCN(CCCCCCn2c(C)nc3nc(Cl)nc(S(=O)(=O)C(C)C)c32)C1` [Compound 143, (3R)-1-(6-(2-chloro-6-(isopropylsulfonyl)-8-methyl-7H-purin-7-yl)hexyl)-3-((6-methoxy-6-oxohexyl)oxy)pyrrolidin-1-ium chloride], the IC50 lay in the range of 1 to 5 µM.

With `Cc1nc2nc(Cl)nc(S(=O)(=O)C(C)C)c2n1CCCCCCCCCCCCCCCC#N` [Compound 164, 16-(2-chloro-6-(isopropylsulfonyl)-8-methyl-7H-purin-7-yl)hexadecanenitrile], the IC50 fell in the range of 0.001 to 1 µM.

On to `COC(=O)CCCCCCCCCCCCCCCn1c(C)nc2c(Cl)nc(Cl)nc21` [Compound 34, methyl 16-(2,6-dichloro-8-methyl-9H-purin-9-yl)hexadecanoate], for which the IC50 fell in the range of 10 to 20 µM.

Regarding `Cc1nc2nc(Cl)nc(Cl)c2n1CCCCCCO` [Compound 62, 6-(2,6-dichloro-8-methyl-7H-purin-7-yl)hexan-1-ol], the half-inhibitory concentration (IC50) lay within 1 to 5 µM.

Turning to `Cc1nc2nc(Cl)nc(Cl)c2n1C/C=C/Cn1c(C)nc2nc(Cl)nc(Cl)c21` [Compound 103, (E)-1,4-bis(2,6-dichloro-8-methyl-7H-purin-7-yl)but-2-ene], the IC50 fell in the range of 5 to 10 µM.

With `O=C(O)CCCCCCCCCCCCCCCn1cnc2nc(Cl)nc(Cl)c21` [Compound 30, 16-(2,6-dichloro-7H-purin-7-yl)hexadecanoic acid], the IC50 lay within 1 to 5 µM.

On to `CNC(=O)CCCCCCCCCCCCCCCn1c(C)nc2nc(Cl)nc(S(=O)(=O)C(C)C)c21` [Compound 131, 16-(2-chloro-6-(isopropylsulfonyl)-8-methyl-7H-purin-7-yl)-N-methylhexadecaanamide], for which the IC50 was 0.001 to 1 µM.

Regarding `COC(=O)CCCCCCCCCCCCCCCn1cnc2nc(Cl)ncc21` [Compound 2], the IC50 is 10 to 20 µM.

Take `COc1ccc(Cn2cnc3c(NCCCCCC(=O)O)nc(Cl)nc32)cc1` [Compound 22, 6-((2-chloro-9-(4-methoxybenzyl)-9H-purin-6-yl)amino)hexanoic acid]: the IC50 was greater than 20 µM.

Regarding `COC(=O)CCCCCCCCCCCCCCCn1c(CCl)nc2nc(Cl)nc(Cl)c21` [Compound 91, Methyl 16-(2,6-dichloro-8-(chloromethyl)-7H-purin-7-yl)hexadecanoate], the IC50 was in the range of 0.001 to 1 µM.

Take `Cc1nc2nc(Cl)nc(Cl)c2n1CCCCCCCCCCCCCCCC(=O)O` [Compound 72, 16-(2,6-dichloro-8-methyl-7H-purin-7-yl)hexadecanoic acid]: the IC50 was 10 to 20 µM.

`CCCCCCCCCCCCCCC(C(=O)O)n1ccc2c(Cl)nc(Cl)nc21` (stereo not drawn) [Compound 17, 2-(2,4-dichloro-7H-pyrrolo[2,3-d]pyrimidin-7-yl)hexadecanoic acid]: the IC50 was greater than 20 µM.

As for `Cc1nc2c(Cl)nc(Cl)nc2n1CCCCCCCCCCCCCCCCO` [Compound 76, 16-(2,6-dichloro-8-methyl-9H-purin-9-yl)hexadecan-1-ol], the IC50 lay in the range of 5 to 10 µM.

For the molecule `COC(=O)CCCCCCCCCCCCCCCn1c(C(C)C)nc2nc(Cl)nc(Cl)c21` [Compound 89, methyl 16-(2,6-dichloro-8-isopropyl-7H-purin-7-yl)hexadecanoate], the IC50 lay within 0.001 to 1 µM.

With `COC(=O)C(CCC(C(=O)OC)n1cnc2nc(Cl)nc(Cl)c21)n1cnc2nc(Cl)nc(Cl)c21` (stereo not drawn) [Compound 57, dimethyl 2,5-bis(2,6-dichloro-7H-purin-7-yl)hexanedioate], the IC50 lay in the range of 1 to 5 µM.

Take `OCCOCCOCCOCCn1cnc2nc(Cl)nc(Cl)c21` [Compound 48, 2-(2-(2-(2-(2,6-dichloro-7H-purin-7-yl)ethoxy)ethoxy)ethoxy)ethan-1-ol]: the IC50 lay in the range of 1 to 5 µM.

With `COC(=O)CCCCn1c(C)nc2nc(Cl)nc(Cl)c21` [Compound 60, methyl 5-(2,6-dichloro-8-methyl-7H-purin-7-yl)pentanoate], the IC50 fell in the range of 5 to 10 µM.
